Results as given in PubChem BioAssay (NCI).
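GI50 marks 50% less growth. TGI is the concentration that stops growth completely.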

How the values were obtained:
Experiment in all cases: growth of human tumour cells (NCI), 384-well format
LOX IMVI melanoma = tested on: LOX IMVI melanoma
K-562 leukemia = tested on: K-562 leukemia
NCI-H226 lung = tested on: NCI-H226 lung
HS 578T breast = tested on: HS 578T breast
CAKI-1 renal = tested on: CAKI-1 renal
PC-3 prostate = tested on: PC-3 prostate
HCT-15 colon = tested on: HCT-15 colon
OVCAR-3 ovarian = tested on: OVCAR-3 ovarian
EKVX NSCLC = tested on: EKVX NSCLC
MDA-MB-435 melanoma = tested on: MDA-MB-435 melanoma
IGROV1 ovarian = tested on: IGROV1 ovarian
UACC-257 melanoma = tested on: UACC-257 melanoma
MOLT-4 leukemia = tested on: MOLT-4 leukemia
ACHN renal = tested on: ACHN renal
OVCAR-4 ovarian = tested on: OVCAR-4 ovarian
MDA-MB-231 breast = tested on: MDA-MB-231 breast
HOP-62 NSCLC = tested on: HOP-62 NSCLC
TK-10 renal = tested on: TK-10 renal
HT29 colon = tested on: HT29 colon
NCI-H460 NSCLC = tested on: NCI-H460 NSCLC
COLO 205 colon = tested on: COLO 205 colon
M14 melanoma = tested on: M14 melanoma
NCI-H23 lung = tested on: NCI-H23 lung
RPMI-8226 leukemia = tested on: RPMI-8226 leukemia
OVCAR-5 ovarian = tested on: OVCAR-5 ovarian
SK-OV-3 ovarian = tested on: SK-OV-3 ovarian
HOP-92 NSCLC = tested on: HOP-92 NSCLC
A498 renal = tested on: A498 renal
SN12C renal = tested on: SN12C renal
KM12 colon = tested on: KM12 colon
SF-539 CNS = tested on: SF-539 CNS
NCI-H522 lung = tested on: NCI-H522 lung
RXF 393 renal = tested on: RXF 393 renal
SF-268 CNS = tested on: SF-268 CNS
T-47D breast = tested on: T-47D breast
CCRF-CEM leukemia = tested on: CCRF-CEM leukemia
MALME-3M melanoma = tested on: MALME-3M melanoma
OVCAR-8 ovarian = tested on: OVCAR-8 ovarian
A549 NSCLC = tested on: A549 NSCLC
SNB-75 CNS = tested on: SNB-75 CNS
HL-60(TB) leukemia = tested on: HL-60(TB) leukemia
MCF7 breast = tested on: MCF7 breast
MDA-MB-468 breast = tested on: MDA-MB-468 breast
UACC-62 melanoma = tested on: UACC-62 melanoma
SK-MEL-2 melanoma = tested on: SK-MEL-2 melanoma
DU-145 prostate = tested on: DU-145 prostate
UO-31 renal = tested on: UO-31 renal

## COC(=O)c1ccc2c(C(=Nc3ccc(N(C)C(=O)CN4CCN(C)CC4)cc3)c3ccccc3)c(O)[nH]c2c1
LOX IMVI melanoma
  GI50: 2230 nM
  TGI: 3.69 µM
K-562 leukemia
  GI50: 137 nM
  TGI: 286 nM
NCI-H226 lung
  GI50: 812 nM
  TGI: 2190 nM
HS 578T breast
  GI50: 1280 nM
  TGI: 2820 nM
CAKI-1 renal
  GI50: 1370 nM
  TGI: 2810 nM
PC-3 prostate
  GI50: 2660 nM
  TGI: 10.3 µM
HCT-15 colon
  GI50: 1760 nM
  TGI: 3.33 µM
OVCAR-3 ovarian
  GI50: 1780 nM
  TGI: 3.26 µM
EKVX NSCLC
  GI50: 2000 nM
  TGI: 3.65 µM
MDA-MB-435 melanoma
  GI50: 1860 nM
  TGI: 3.33 µM
IGROV1 ovarian
  GI50: 427 nM
  TGI: 4.47 µM
UACC-257 melanoma
  GI50: 1330 nM
  TGI: 2610 nM
MOLT-4 leukemia
  GI50: 730 nM
  TGI: 2090 nM
ACHN renal
  GI50: 1360 nM
  TGI: 2890 nM
OVCAR-4 ovarian
  GI50: 1440 nM
  TGI: 2870 nM
MDA-MB-231 breast
  GI50: 1720 nM
  TGI: 3.13 µM
HOP-62 NSCLC
  GI50: 1610 nM
  TGI: 3.24 µM
TK-10 renal
  GI50: 1830 nM
  TGI: 3.82 µM
HT29 colon
  GI50: 1230 nM
  TGI: 2510 nM
NCI-H460 NSCLC
  GI50: 1870 nM
  TGI: 3.3 µM
COLO 205 colon
  GI50: 1750 nM
  TGI: 3.14 µM
M14 melanoma
  GI50: 1870 nM
  TGI: 3.29 µM
NCI-H23 lung
  GI50: 1790 nM
  TGI: 5.17 µM
RPMI-8226 leukemia
  GI50: 1340 nM
  TGI: 2620 nM
OVCAR-5 ovarian
  GI50: 1300 nM
  TGI: 2690 nM
SK-OV-3 ovarian
  GI50: 1340 nM
  TGI: 2780 nM
HOP-92 NSCLC
  GI50: 950 nM
  TGI: 2600 nM
A498 renal
  GI50: 1640 nM
  TGI: 3.07 µM
SN12C renal
  GI50: 1110 nM
  TGI: 2350 nM
KM12 colon
  GI50: 47.5 nM
  TGI: 1330 nM
SF-539 CNS
  GI50: 545 nM
  TGI: 1910 nM
NCI-H522 lung
  GI50: 750 nM
  TGI: 2040 nM
RXF 393 renal
  GI50: 1110 nM
  TGI: 2580 nM
SF-268 CNS
  GI50: 1560 nM
  TGI: 3.1 µM
T-47D breast
  GI50: 1370 nM
  TGI: 2720 nM
CCRF-CEM leukemia
  GI50: 1710 nM
  TGI: 3.09 µM
MALME-3M melanoma
  GI50: 1460 nM
  TGI: 2780 nM
OVCAR-8 ovarian
  GI50: 1580 nM
  TGI: 2970 nM
A549 NSCLC
  GI50: 1740 nM
  TGI: 3.32 µM
SNB-75 CNS
  GI50: 468 nM
  TGI: 1510 nM
HL-60(TB) leukemia
  GI50: 2040 nM
  TGI: 3.47 µM
MCF7 breast
  GI50: 1320 nM
  TGI: 2760 nM
MDA-MB-468 breast
  GI50: 1670 nM
  TGI: 3.08 µM
UACC-62 melanoma
  GI50: 1900 nM
  TGI: 3.32 µM
SK-MEL-2 melanoma
  GI50: 1720 nM
  TGI: 3.12 µM
DU-145 prostate
  GI50: 1790 nM
  TGI: 3.34 µM
UO-31 renal
  GI50: 1400 nM
  TGI: 2930 nM
